22 molecules from US5605929A, “Methods and compositions for inhibiting 5α-reductase activity” (priority 1995, dated 1997) can be followed below.

In this test the target is T1, 5α-Reductase of Rat Liver Microsomes (Rattus norvegicus, UniProt P24008).
T1 sequence (P24008 1-259): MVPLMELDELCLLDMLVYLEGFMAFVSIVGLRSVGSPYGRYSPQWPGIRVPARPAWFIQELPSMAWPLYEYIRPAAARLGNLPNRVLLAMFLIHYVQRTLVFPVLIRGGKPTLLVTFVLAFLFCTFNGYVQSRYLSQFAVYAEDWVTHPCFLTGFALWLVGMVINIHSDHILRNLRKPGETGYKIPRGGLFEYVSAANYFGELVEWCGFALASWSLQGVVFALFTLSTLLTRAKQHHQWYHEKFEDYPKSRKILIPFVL
The experiment in a line: biochemical.

Setting [1] is: read-out: % Inhibition of [^3 H]4-MA binding, Table 1, 10 μM.
Where [2] appears, read: read-out: % Inhibition of [^3 H]4-MA binding, Table 1, 40 μM.
[3] abbreviates: read-out: % Inhibition of [^3 H]4-MA binding, Table 1, 200 μM.
The mark [4] stands for this setting: read-out: % Inhibition of [^3 H]4-MA binding, Table 2, 10 μM.
Setting [5] is: read-out: % Inhibition of [^3 H]4-MA binding, Table 2, 40 μM.
[6] abbreviates: read-out: % Inhibition of [^3 H]4-MA binding, Table 2, 200 μM.
Setting [7] is: read-out: % Inhibition of [^3 H]4-MA binding.

Structures are written as SMILES. Read-outs that look alike come from different tables or passages of the source. Bounds are passed on as bounds.

Procedure: Briefly, the binding assay solution, in a final volume of 0.15 ml, contained microsomes (2-20 μg of protein), 0.08 μCi of [^3 H]4-MA, 0.1 mM-NADPH, 1 mM-dithiothreitol and 50 mM-potassium phosphate, pH 7.0, with or without the indicated amount of a lipid or an inhibitor preparation. Lipids were dissolved in ethanol and added in 1-5 μl volumes. Control tubes received the same amount of ethanol. After incubation at 0° C. for 1 h, the [^3 H]4-MA bound to microsomes was determined by collecting microsomes on a Whatman GF/1F glass fibre filter and washing with 10 ml of 20 mM-potassium phosphate, pH 7.0, containing 0.01% CHAPS to remove unbound [^3 H]4-MA.
Microsomes were prepared at 4° C. from a buffered 0.32M-sucrose homogenate of human liver and from the livers of adult Sprague-Dawley female rats by differential centrifugation as described previously (Liang et al., 1990), and were used in the assay of 5α-reductase activity. In some experiments, microsomes were solubilized with 0.1% polyoxyethylene ether W-1 as described previously (Liang et al., 1990), except for the substitution of polyoxyethylene ether W-1 for Lubrol-WX.

A word on the IC50: it is the concentration needed to halve the response being measured. A lower IC50 goes with higher potency. As usually defined, the inhibition is the share of the control response that was lost under treatment. Turning to `CC/C=C\C/C=C\C/C=C\C/C=C\CCCCC(=O)O` [Octadecatetraenoic acid], the IC50 came to 57 µM. Also, under setting [1], the inhibition at 10 µM is under 10%. Also, the inhibition at 40 µM under setting [2] stood at 40 ± 6%. The inhibition at 200 µM under setting [3] stood at 88 ± 2%. Also, the inhibition at 10 µM under setting [4] is under 10%. In addition, under setting [5], the inhibition at 40 µM came out at 40%. Under setting [6], the inhibition at 200 µM was found to be 88%.

Take `CCCCCCCC/C=C\CCCCCCCC(=O)OC` [Oleic acid methyl ester]: under setting [7], the inhibition at 40 µM is under 10% and the inhibition at 200 µM is under 10%.

Consider `CCCCCCCC/C=C\CCCCCCCCO` [Oleyl alcohol], for which, under setting [7], the inhibition at 40 µM is under 10% and the inhibition at 200 µM was under 10%.

On to `CCCCCC/C=C/CCCCCCCC(=O)O` [Palmitelaidic Acid], for which the inhibition at 200 µM under setting [7] is under 10%.

Turning to `CCCCCC/C=C\CCCCCCCC(=O)OC` [Palmitoleic acid methyl ester], under setting [7], the inhibition at 40 µM was under 10% and the inhibition at 200 µM was under 10%.

In turn, `CCCCCC/C=C\CCCCCCCC(=O)O` [Palmitoleic acid] came in with an IC50 of 108 µM. Further, the inhibition at 10 µM under setting [1] is under 10%. Besides, the inhibition at 40 µM under setting [2] was determined as 16 ± 5%. In addition, the inhibition at 200 µM under setting [3] stood at 73 ± 7%. For the same molecule, under setting [4], the inhibition at 10 µM is under 10%. Besides, under setting [5], the inhibition at 40 µM came out at 16%. Also, the inhibition at 200 µM under setting [6] stood at 73%.

For `CCCCCC/C=C\CCCCCCCCO` [Palmitoleyl alcohol], under setting [7], the inhibition at 40 µM was under 10% and the inhibition at 200 µM turned out to be 16 ± 4%.

Consider `CCCCCCCCCCC/C=C\CCCCC(=O)O` [Petroselinic acid], for which the inhibition at 40 µM is, setting by setting: under setting [2], under 10%; under setting [5], under 10%. Also, the inhibition at 200 µM under setting [3] was determined as 52 ± 9% and the inhibition at 200 µM under setting [6] turned out to be 52%.

With `CCCCC/C=C\C/C=C\C/C=C\CCCCC(=O)OCC(COC(=O)CCCC/C=C\C/C=C\C/C=C\CCCCC)OC(=O)CCCC/C=C\C/C=C\C/C=C\CCCCC` [Tri-γ-Linolenin, tri-γ-linolenin], the IC50 was over 200 µM. For the same molecule, the inhibition at 5 µM (read-out: % Inhibition of [^3 H]4-MA binding, Table 2, 5 μM) is under 10%. Under setting [4], the inhibition at 10 µM is under 10%. Moreover, under setting [5], the inhibition at 40 µM is under 10%. Also, under setting [6], the inhibition at 200 µM is under 10%.

The molecule `CCCCC/C=C\C/C=C\C/C=C\CCCCC(=O)O[C@H]1CC[C@@]2(C)C(=CC[C@H]3[C@@H]4CC[C@H]([C@H](C)CCCC(C)C)[C@@]4(C)CC[C@@H]32)C1` [cholesteryl γ-linolenate] returned an IC50 of over 200 µM.

For the molecule `CC/C=C\C/C=C\C/C=C\C/C=C\C/C=C\C/C=C\CCCO` [cis4,7,10,13,,16,19-docosahexenol], the inhibition at 200 µM under setting [7] turned out to be 51%.

As to `CCCCC/C=C\C/C=C\C/C=C\CCCCCCC(=O)Cl` [homo-γ-linolenoyl chloride], the IC50 is over 200 µM.

With `CCCCC/C=C/C/C=C/CCCCCCCCC#N` [linolelaidyl cyanide nitrile], the IC50 was over 200 µM.

`CCCCC/C=C\C/C=C\CCCCCCCCC#N` [linoleyl cyanide nitrile] showed an IC50 of over 200 µM.

Consider `CCCCCCC=CCCCCCCCCC(=O)OC` [methyl 10-heptadecenoate], for which the IC50 is over 200 µM.

Molecule `CCC=CCC=CCC=CCCCCCCCCCCCC(=O)OC` [methyl 13,16,19-docosatrienoate] had an IC50 of over 200 µM.

`CCCCC/C=C\C/C=C\C/C=C\CCCCCCC(=O)OC` [methyl homo-γ-linolenate] came in with a half-inhibitory concentration (IC50) of over 200 µM.

As for `CCCCC/C=C\C/C=C\C/C=C\CCCCC(=O)OC` [methyl γ-linolenate], the IC50 is over 200 µM.

Turning to `CCCC/C=C\CCCCCCCC(=O)OC` [myristoleic acid methyl ester], the inhibition at 200 µM under setting [7] turned out to be 27%.

`CCCCCCCCCCCCCCCCCCC#N` [nonadecane nitrile] had an IC50 of over 200 µM.

For `CCCCCC/C=C/CCCCCCCCCC(=O)O` [trans-Vaccenic Acid], under setting [6], the inhibition at 200 µM amounted to 39%.

As for `CC/C=C\C/C=C\C/C=C\CCCCCCCC(=O)OC` [α-Linolenic acid methyl ester], under setting [7], the inhibition at 10 µM was under 10%, the inhibition at 40 µM was under 10% and the inhibition at 200 µM was under 10%.
